Assay results published in ChEMBL document CHEMBL1129361, “Modulators of leukotriene biosynthesis and receptor activation” (J Med Chem, 1996).
Active and inactive are the calls of the source. The rule behind the calls is not given here.

Experiments:
Cavia porcellus [1] = assay: Compound was tested in vivo inhibitory activity against LTB4 induced neutrophil influx in guinea pig(orally); format: functional; details: po
Cavia porcellus [2] = assay: Compound was tested in vivo inhibitory activity against LTB4 induced neutropenia in guinea pig.(orally); format: functional; details: po
Homo sapiens [3] = organism: Homo sapiens; assay: Compound was tested in vitro inhibitory activity against human neutrophil degranulation.; format: functional
[4] = biological target: T1, Cysteinyl leukotriene receptor (Homo sapiens, UniProt Q9Y271+Q9NS75); assay: Binding affinity against Cysteinyl leukotriene D4 receptor; format: protein assay
T1 sequence (Q9Y271 whole entry): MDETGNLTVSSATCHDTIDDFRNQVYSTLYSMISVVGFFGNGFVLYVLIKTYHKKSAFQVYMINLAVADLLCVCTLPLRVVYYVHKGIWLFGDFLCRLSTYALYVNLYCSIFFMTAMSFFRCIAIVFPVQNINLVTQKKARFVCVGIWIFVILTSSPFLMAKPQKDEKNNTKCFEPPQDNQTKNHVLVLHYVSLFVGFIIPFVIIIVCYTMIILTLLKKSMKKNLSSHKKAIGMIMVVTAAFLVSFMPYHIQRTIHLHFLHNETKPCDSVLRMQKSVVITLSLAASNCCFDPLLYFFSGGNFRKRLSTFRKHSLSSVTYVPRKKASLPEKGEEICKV
T1 sequence (Q9NS75 whole entry): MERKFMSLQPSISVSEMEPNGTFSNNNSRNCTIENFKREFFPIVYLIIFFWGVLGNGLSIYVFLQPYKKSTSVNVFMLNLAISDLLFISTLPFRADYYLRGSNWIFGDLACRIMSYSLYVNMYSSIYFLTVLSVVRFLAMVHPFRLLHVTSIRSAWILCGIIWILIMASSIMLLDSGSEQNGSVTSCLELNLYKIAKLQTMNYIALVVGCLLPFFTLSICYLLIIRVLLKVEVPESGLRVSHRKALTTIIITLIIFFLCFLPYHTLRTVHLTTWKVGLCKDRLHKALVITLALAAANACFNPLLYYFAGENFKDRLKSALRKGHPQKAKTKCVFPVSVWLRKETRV

Cavia porcellus [5] = organism: Cavia porcellus; assay: Compound was tested for LTD4 induced guinea pig trachea contraction; format: functional; details: for Kb: read-out: pA2 (converted)
Cavia porcellus [6] = assay: Compound was tested in vivo inhibitory activity against LTB4 induced bronchoconstriction in guinea pig (intravenous).; format: functional
Cavia porcellus [7] = assay: Compound was tested in vivo inhibitory activity against LTB4 induced bronchoconstriction in guinea pig(po); format: functional
Homo sapiens [8] = assay: Compound was evaluated for LTD4 induced bronchoconstriction (shift in dose response curve 2 hr after 40 mg oral administration); format: functional
Homo sapiens [9] = assay: Compound was evaluated for LTD4 induced bronchoconstriction (shift in dose response curve 2 hr after 40 mg oral administration) shift persisted for 24 hrs; format: functional
Cavia porcellus [10] = organism: Cavia porcellus; assay: Compound was evaluated for LTD4 induced guinea pig trachea contraction; details: read-out: pA2 (converted)
Cavia porcellus [11] = assay: Compound was tested in vivo inhibitory activity to block 12 (R)-HETE skin inflammation (peroral administration) at 3 mg/kg; format: functional; details: route oral
Cavia porcellus [12] = assay: Compound was tested in vivo inhibitory activity against LTB4 induced neutrophil cutaneous influx in guinea pig; format: functional
Homo sapiens [13] = organism: Homo sapiens; assay: Compound was tested in vitro inhibitory activity against […] induced Ca mobilization.; format: functional, organism-based
Homo sapiens [14] = organism: Homo sapiens; assay: Compound was tested in vitro inhibitory activity against […] induced chemotaxis of human neutrophil; format: functional
Homo sapiens [15] = assay: Shift in LTB-4 dose response curve for CD11b upregulation in normal volunteers; format: functional
Mus musculus [16] = assay: Compound was tested in vivo inhibitory activity against LTB4 induced neutrophil cutaneous influx in mouse.; format: functional
Homo sapiens [17] = organism: Homo sapiens; assay: Compound was tested in vitro inhibitory activity against human neutrophil CD11b/CD18.; format: functional; details: read-out: pA2 (converted)
Monkey = assay: Compound was tested for in vivo inhibition against squirrel monkey antigen bronchospasm at 1 mg/kg; format: functional; details: Bronchiole, in Primates
Rattus norvegicus [18] = assay: Compound was tested for in vivo inhibition against rat antigen bronchospasm; format: functional
Rattus norvegicus [19] = assay: Compound was tested for in vivo inhibition against rat ionophore LTB4 formation; format: functional
[20] = Inhibitory activity against LT biosynthesis; […]; format: functional
Cavia porcellus [21] = assay: Compound was tested in vivo inhibitory activity against LTB4 induced bronchoconstriction (intravenous); format: functional
Cavia porcellus [22] = assay: Compound was tested in vivo inhibitory activity against LTB4 induced bronchoconstriction (orally); format: functional; details: po
Cavia porcellus [23] = assay: Compound was tested in vivo inhibitory activity against PMA induced ear edema in guinea pig (orally); format: functional; details: po
Cavia porcellus [24] = assay: compound was tested in vivo for LTB4 induced neutrophil chemotaxis in guinea pig(orally) at duration 24 h; format: functional; details: po
Homo sapiens [25] = organism: Homo sapiens; assay: Compound was tested in vitro for inhibitory activity in LTB4 induced chemotaxis; format: functional, organism-based
Homo sapiens [26] = organism: Homo sapiens; assay: Compound was tested in vitro for inhibitory activity in LTB4 induced neutrophil degranulation; format: functional
[27] = biological target: Leukotriene B4 receptor 1 (Homo sapiens, UniProt Q15722); assay: Compound was tested for inhibitory activity against human neutrophil LTB4 receptor binding
Sequence of Leukotriene B4 receptor 1 (Q15722 whole entry): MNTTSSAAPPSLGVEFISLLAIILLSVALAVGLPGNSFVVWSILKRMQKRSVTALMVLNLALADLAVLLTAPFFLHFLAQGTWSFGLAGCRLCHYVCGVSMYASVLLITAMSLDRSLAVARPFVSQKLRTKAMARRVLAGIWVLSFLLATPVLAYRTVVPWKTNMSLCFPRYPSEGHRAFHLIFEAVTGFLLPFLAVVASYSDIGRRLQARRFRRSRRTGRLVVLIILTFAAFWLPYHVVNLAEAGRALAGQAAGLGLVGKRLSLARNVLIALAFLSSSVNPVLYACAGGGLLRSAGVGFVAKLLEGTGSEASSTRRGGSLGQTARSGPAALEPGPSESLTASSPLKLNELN

Homo sapiens [28] = assay: Compound was tested for inhibition of LTD4 bronchoconstriction following 4 mg/kg oral dose; active; format: functional, organism-based; design: dose 4 mg/kg; details: Lung
[29] = phase 1 oral half life at a dose 400 mg.; format: ADME, organism-based; details: human, in vivo
Cavia porcellus [30] = assay: Compound was tested for in vivo inhibition on gp antigen bronchospasm.; format: functional; details: Bronchiole
Rattus norvegicus [31] = assay: Compound was tested for in vivo inhibition on rat PMNL.; format: functional
Homo sapiens [32] = organism: Homo sapiens; assay: Compound was tested for in vitro inhibition on human PMNL.; format: functional
[33] = phase 1 oral half life at a dose 200 mg. (200 mg provided >95% inhibition of ex vivo stimulated LTB4 in blood up to 18 hour post dose); format: organism-based; details: human
Cavia porcellus [34] = assay: Compound was tested for in vivo inhibition against gp antigen bronchospasm.; format: functional; details: Bronchiole
Homo sapiens [35] = organism: Homo sapiens; assay: Compound was tested for in vitro inhibition against human whole blood.; format: functional
Homo sapiens [36] = organism: Homo sapiens; assay: Compound was tested for in vitro inhibition against human PMNL.; format: functional
RBL-1 = assay: Compound was tested for in vitro inhibition against broken RBL-1.; format: functional; details: Rattus norvegicus
Rattus norvegicus [37] = assay: Compound was tested for in vivo inhibition against rat peritoneal anaphylaxis.; format: functional
[38] = biological target: T2, Cysteinyl leukotriene receptor 1 (Homo sapiens, UniProt Q9Y271); assay: Compound were tested for inhibitory activity against Cysteinyl leukotriene D4 receptor
T2 sequence (Q9Y271 whole entry): T1 sequence (Q9Y271 whole entry)

Cavia porcellus [39] = assay: Compound was tested in vivo for LTB4 induced neutrophil chemotaxis in guinea pig(orally) at duration 5.5 h; format: functional; details: po
Mus musculus [40] = assay: Compound was tested in vivo inhibitory activity against PMA induced ear edema.; format: functional

SMILES: COc1ccc(/C=C/CCCCOc2cccc(OCCCCC(=O)O)c2CCC(=O)O)cc1
- ED50 (Cavia porcellus [1]): 5.3 mg/kg
- ED50 (Cavia porcellus [2]): 25.6 mg/kg
- IC50 (Homo sapiens [3]): 1600 nM

SMILES: CCCc1c(OCCCC/C=C\C=C\[C@H](Sc2ccc3c(=O)cc(C(=O)[O-])oc3c2)[C@H](O)c2cccc(C(F)(F)F)c2)ccc(C(C)=O)c1O.[Na+]
- Ki [4]: 26 nM

SMILES: CCCCCCCCC/C=C\C=C\[C@@H](SCCC(=O)O)[C@@H](O)c1cccc(-c2nnn[nH]2)c1
- Kb (Cavia porcellus [5]): 5.01 nM

SMILES: CCc1cc(C(C)=O)c(O)cc1OCCCCCC(C)(C)c1nn[nH]n1 [LY-255283]
- ED50 (Cavia porcellus [6]): 2.8 mg/kg
- ED50 (Cavia porcellus [7]): 11 mg/kg

SMILES: COc1cc(C(=O)NS(=O)(=O)c2ccccc2C)ccc1Cc1cn(C)c2ccc(NC(=O)OC3CCCC3)cc12 [ZAFIRLUKAST]
- Activity (Homo sapiens [8]): 117
- Activity (Homo sapiens [9]): 5
- Kb (Cavia porcellus [10]): 0.316 nM

SMILES: O=C(O)C1(c2ccc3c(c2)OC[C@H](Cc2ccc(-c4ccccc4)cc2)[C@H]3O)CCCC1
- inhibition in vivo at 3 mg/kg (Cavia porcellus [11]): 75%
- ED50 (Cavia porcellus [12]): 0.3 mg/kg
- IC50 (Homo sapiens [13]): 940 nM
- IC50 (Homo sapiens [14]): 5 nM
- Activity (Homo sapiens [15]): 10
- ED50 (Mus musculus [16]): 4.2 mg/kg
- Kb (Homo sapiens [17]): 10 nM

SMILES: CC(C)c1ccc2c(c1)c(SC(C)(C)C)c(CC(C)(C)C(=O)O)n2Cc1ccc(Cl)cc1
- inhibition in vivo at 1 mg/kg (Monkey): 85%
- ED50 (Rattus norvegicus [18]): 0.036 mg/kg
- ED50 (Rattus norvegicus [19]): 0.2 mg/kg
- IC50 [20]: 5 nM

SMILES: CC(C)(O)c1ccccc1CC[C@@H](SCC1(CC(=O)O)CC1)c1cccc(/C=C/c2ccc3ccc(Cl)cc3n2)c1 [MONTELUKAST]
- Kb (Cavia porcellus [5]): 0.501 nM

SMILES: CCCc1c(OCCCOc2cc(O)c(C(C)=O)cc2CC)ccc2c1OC(C(=O)O)CC2 (stereo unspecified)
- ED50 (Cavia porcellus [21]): 0.23 mg/kg
- ED50 (Cavia porcellus [22]): 0.5 mg/kg

SMILES: CCCc1c(OCCCOc2ccc(C(=O)NC)c(OC)c2CC2CC2)ccc2c1O[C@H](CCC(=O)O)CC2
- ED50 (Cavia porcellus [23]): < 2.5 mg/kg
- ED50 (Cavia porcellus [24]): 0.07 mg/kg
- IC50 (Homo sapiens [25]): 32 nM
- IC50 (Homo sapiens [26]): 19 nM
- IC50 [27]: 1.3 nM

SMILES: O=C(O)CCS[C@@H](CC(=O)O)c1ccccc1CCCCCCCCc1ccccc1
- Ki [4]: 60 nM
- Activity (Homo sapiens [28]): Active

SMILES: CC(=O)N(O)C/C=C/c1cccc(Oc2ccccc2)c1
- half-life [29]: 2 h
- ED50 (Cavia porcellus [30]): 10 mg/kg
- ED50 (Rattus norvegicus [31]): 54 mg/kg
- IC50 (Homo sapiens [32]): 40 nM

SMILES: C[C@H](C#Cc1ccc(Cc2ccc(F)cc2)s1)N(O)C(N)=O [ATRELEUTON]
- half-life [33]: 15 h
- ED50 (Cavia porcellus [34]): 4 mg/kg
- IC50 (Homo sapiens [35]): 150 nM
- IC50 (Homo sapiens [36]): 23 nM
- IC50 (RBL-1): 23 nM
- ED50 (Rattus norvegicus [37]): 0.6 mg/kg

SMILES: CN(C)C(=O)CCS[C@H](SCCC(=O)[O-])c1cccc(/C=C/c2ccc3ccc(Cl)cc3n2)c1.[Na+]
- IC50 [38]: 3.1 nM
- pKB (Cavia porcellus [5]): 8.8

SMILES: CCCc1c(OCCCOc2ccc(C(C)=O)c(OC)c2CCC)ccc2c1OC(C(=O)O)CC2 (stereo unspecified) [SC-41390]
- ED50 (Cavia porcellus [39]): 1.7 mg/kg
- IC50 (Homo sapiens [26]): 1080 nM
- ED50 (Mus musculus [40]): 4200 nM
